Results reported in patent US10670605B2, “Cysteine reactive probes and uses thereof” (The Scripps Research Institute, priority 2015, dated 2020).

Experiments:
LRBA C2675 (P50851) = LRBA C2675 (P50851) (Homo sapiens, UniProt P50851); assay: Competitive isoTOP-ABPP, cell lysates; assay type: binding; conditions: for isoTOP-ABPP ratio (reactivity profile), P50851_C2675: 500 μm in-vitro ramos
MLTK C22 (Q9NYL2) = MLTK C22 (Q9NYL2) (Homo sapiens, UniProt Q9NYL2); assay: Competitive isoTOP-ABPP, cell lysates; assay type: binding; conditions: for isoTOP-ABPP reactivity profile ratio, Q9NYL2_C22 / isoTOP-ABPP reactivity ratio, Q9NYL2_C22: 500 μm, in-vitro_ramos_231; for isoTOP-ABPP ratio (reactivity profile), Q9NYL2_C22: 500 μm in-vitro ramos_231; for R value (DMSO/fragment): in vitro, MDA-MB-231
MLTK C22 (Q9NYL2), sequence (Q9NYL2 whole entry, the tested form may be a part): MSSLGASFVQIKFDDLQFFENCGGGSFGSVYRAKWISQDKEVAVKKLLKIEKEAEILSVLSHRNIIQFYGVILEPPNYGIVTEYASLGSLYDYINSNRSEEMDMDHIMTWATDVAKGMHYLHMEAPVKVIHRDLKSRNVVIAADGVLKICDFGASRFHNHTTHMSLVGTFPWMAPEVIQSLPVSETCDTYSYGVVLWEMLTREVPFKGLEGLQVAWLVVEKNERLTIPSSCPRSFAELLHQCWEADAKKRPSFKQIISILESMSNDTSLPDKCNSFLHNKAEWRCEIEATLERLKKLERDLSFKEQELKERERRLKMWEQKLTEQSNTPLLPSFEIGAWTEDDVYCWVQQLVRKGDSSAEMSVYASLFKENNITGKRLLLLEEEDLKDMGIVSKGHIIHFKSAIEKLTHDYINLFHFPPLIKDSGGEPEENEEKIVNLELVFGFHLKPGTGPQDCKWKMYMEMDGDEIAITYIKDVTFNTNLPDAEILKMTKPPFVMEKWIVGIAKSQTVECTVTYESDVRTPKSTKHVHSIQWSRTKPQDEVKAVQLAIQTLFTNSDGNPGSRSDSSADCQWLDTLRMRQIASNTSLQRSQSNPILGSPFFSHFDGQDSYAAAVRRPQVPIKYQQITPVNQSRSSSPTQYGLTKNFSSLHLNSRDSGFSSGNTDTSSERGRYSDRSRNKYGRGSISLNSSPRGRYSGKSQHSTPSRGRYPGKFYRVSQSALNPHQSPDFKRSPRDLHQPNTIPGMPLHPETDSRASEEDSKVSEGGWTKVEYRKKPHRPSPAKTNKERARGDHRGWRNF

RRAGC C377 (Q9HB90) = RRAGC C377 (Q9HB90) (Homo sapiens, UniProt Q9HB90); assay: Competitive isoTOP-ABPP, cell lysates; assay type: binding; conditions: for isoTOP-ABPP ratio (reactivity profile), Q9HB90_C377: 500 μm in-vitro ramos_231; for R value (DMSO/fragment): in vitro, MDA-MB-231
RRAGC C377 (Q9HB90), sequence (Q9HB90 2-399 limits assumed): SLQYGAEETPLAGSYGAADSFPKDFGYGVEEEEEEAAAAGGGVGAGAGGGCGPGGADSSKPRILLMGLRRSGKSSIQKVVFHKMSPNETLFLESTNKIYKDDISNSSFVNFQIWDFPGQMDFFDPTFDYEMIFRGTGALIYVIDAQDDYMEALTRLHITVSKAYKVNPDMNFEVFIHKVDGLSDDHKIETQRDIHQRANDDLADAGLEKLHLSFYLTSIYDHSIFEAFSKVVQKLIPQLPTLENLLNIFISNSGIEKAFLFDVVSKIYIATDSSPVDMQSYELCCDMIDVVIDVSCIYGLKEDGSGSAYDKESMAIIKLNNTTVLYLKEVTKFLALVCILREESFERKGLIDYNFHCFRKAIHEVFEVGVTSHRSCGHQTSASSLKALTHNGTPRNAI
RRAGC C377 (Q9HB90), sequence (Q7L523 whole entry partner, the tested form may be a part): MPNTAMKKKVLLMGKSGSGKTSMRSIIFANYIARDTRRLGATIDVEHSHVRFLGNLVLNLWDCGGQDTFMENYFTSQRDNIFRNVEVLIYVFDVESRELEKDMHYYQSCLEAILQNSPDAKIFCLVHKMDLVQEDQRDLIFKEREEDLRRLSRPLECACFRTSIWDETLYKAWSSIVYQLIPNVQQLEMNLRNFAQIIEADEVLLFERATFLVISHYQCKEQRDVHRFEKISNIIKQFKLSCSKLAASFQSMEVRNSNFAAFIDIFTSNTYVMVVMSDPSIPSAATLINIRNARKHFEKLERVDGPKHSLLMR

[1] = target: T1, cysteines in MDA-MB-231 and Ramos cells (Homo sapiens, UniProt Q9BVC5); assay: Competitive isoTOP-ABPP in situ (fragment-treated cells); assay type: cell-based
T1 sequence (Q9BVC5 1-232): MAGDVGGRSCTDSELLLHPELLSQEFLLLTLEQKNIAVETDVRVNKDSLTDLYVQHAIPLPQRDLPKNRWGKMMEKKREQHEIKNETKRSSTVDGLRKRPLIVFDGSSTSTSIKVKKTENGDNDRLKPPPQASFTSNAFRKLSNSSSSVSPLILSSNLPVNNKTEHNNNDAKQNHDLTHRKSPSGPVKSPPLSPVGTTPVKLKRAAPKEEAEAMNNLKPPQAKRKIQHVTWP

[2] = target: T2, cysteines in MDA-MB-231 and Ramos cells (Homo sapiens, UniProt P49588); assay: as above; assay type: cell-based
T2 sequence (P49588 1-968): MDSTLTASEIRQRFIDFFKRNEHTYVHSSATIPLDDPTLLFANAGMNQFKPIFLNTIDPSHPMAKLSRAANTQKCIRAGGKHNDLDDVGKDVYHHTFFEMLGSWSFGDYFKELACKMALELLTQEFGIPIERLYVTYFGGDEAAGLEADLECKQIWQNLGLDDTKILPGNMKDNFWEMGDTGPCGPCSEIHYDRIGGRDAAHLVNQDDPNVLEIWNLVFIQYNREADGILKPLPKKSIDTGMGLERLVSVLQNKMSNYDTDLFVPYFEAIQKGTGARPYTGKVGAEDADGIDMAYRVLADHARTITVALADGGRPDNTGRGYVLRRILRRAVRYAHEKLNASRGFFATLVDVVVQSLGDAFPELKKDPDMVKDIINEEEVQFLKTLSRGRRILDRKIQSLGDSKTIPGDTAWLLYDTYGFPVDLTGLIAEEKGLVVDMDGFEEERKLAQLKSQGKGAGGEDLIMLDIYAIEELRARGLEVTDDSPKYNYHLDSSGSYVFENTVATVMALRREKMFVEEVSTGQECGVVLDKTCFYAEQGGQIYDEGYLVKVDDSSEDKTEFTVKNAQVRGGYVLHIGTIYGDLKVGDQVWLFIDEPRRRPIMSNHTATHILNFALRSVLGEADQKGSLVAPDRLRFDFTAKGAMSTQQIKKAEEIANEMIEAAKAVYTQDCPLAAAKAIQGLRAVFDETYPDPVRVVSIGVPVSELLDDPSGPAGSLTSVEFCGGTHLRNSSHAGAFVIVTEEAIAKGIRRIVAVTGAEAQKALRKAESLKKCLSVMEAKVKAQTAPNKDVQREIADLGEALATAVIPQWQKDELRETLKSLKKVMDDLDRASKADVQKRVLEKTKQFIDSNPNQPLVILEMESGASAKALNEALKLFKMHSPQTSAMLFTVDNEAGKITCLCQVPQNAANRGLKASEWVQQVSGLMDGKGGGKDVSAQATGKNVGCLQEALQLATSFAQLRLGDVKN

LRBA C2675 (P50851), sequence (P50851 whole entry, the tested form may be a part): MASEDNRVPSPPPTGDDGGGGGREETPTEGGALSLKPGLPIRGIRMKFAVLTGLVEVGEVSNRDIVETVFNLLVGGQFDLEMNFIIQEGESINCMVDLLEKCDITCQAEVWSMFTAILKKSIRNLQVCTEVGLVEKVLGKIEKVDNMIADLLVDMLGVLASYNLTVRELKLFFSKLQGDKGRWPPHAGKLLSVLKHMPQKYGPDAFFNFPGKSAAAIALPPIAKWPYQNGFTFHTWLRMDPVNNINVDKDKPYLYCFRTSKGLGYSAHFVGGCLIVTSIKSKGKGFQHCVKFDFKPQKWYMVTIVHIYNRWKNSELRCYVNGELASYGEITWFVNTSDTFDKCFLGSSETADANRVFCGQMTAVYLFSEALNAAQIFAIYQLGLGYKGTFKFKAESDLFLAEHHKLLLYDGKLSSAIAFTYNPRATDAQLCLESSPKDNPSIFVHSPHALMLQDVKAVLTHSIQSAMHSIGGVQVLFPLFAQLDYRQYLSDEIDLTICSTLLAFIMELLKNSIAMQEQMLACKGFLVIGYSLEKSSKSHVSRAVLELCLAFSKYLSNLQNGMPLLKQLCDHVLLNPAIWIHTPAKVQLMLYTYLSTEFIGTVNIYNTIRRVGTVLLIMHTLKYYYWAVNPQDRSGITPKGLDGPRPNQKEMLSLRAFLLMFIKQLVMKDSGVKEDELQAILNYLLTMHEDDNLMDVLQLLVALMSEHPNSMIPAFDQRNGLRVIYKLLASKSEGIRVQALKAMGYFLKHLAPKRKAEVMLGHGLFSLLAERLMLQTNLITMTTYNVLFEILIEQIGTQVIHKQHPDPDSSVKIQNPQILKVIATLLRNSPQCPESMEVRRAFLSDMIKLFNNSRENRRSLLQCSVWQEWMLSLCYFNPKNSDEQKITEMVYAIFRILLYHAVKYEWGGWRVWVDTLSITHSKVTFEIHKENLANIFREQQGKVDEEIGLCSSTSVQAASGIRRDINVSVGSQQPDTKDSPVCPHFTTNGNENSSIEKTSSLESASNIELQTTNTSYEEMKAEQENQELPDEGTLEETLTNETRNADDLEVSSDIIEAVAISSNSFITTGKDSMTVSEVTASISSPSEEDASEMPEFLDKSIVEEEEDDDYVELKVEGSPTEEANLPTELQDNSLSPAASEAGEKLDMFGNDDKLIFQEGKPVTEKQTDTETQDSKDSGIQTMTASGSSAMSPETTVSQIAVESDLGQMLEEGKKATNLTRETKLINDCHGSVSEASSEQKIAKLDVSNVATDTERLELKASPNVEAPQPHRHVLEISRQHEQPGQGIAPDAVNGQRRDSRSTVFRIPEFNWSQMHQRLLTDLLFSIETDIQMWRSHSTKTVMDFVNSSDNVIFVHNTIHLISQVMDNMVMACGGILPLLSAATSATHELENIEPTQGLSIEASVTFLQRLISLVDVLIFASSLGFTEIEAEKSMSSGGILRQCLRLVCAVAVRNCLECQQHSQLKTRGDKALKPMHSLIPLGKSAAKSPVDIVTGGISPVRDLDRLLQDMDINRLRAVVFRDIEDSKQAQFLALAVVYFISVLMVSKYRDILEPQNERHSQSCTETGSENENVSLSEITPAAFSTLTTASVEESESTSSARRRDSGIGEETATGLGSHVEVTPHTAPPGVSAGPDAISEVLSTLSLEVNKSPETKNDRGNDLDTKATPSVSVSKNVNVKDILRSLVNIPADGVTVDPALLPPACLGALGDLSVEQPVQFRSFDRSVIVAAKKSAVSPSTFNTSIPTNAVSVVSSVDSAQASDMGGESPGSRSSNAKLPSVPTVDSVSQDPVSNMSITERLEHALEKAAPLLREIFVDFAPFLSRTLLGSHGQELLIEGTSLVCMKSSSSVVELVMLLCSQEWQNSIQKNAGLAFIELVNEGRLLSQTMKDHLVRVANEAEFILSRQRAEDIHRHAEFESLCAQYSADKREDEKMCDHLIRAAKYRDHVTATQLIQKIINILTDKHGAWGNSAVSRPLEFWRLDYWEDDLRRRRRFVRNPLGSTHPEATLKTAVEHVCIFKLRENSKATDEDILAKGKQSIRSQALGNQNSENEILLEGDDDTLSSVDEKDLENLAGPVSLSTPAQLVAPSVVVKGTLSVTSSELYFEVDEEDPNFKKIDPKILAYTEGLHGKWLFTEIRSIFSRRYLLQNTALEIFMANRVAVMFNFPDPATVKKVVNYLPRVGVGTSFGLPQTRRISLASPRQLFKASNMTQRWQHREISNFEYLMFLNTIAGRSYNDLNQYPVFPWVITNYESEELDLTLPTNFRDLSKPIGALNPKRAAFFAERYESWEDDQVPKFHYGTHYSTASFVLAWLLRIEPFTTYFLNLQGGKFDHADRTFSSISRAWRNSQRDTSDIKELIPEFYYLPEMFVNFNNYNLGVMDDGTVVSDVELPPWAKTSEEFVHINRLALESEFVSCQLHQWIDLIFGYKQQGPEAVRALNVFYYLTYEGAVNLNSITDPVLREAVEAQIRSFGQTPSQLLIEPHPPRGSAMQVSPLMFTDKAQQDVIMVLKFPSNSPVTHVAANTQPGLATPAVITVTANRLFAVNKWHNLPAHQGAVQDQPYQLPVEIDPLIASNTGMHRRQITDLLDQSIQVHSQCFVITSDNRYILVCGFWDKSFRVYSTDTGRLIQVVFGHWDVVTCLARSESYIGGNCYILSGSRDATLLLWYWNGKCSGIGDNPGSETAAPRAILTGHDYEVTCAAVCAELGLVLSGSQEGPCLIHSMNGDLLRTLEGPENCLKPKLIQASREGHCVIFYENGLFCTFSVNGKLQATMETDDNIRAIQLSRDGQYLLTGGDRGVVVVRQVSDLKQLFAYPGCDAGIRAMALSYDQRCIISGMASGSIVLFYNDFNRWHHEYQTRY

C=CC(=O)N(Cc1cccnc1)c1ccc(Oc2ccccc2)c(C(F)(F)F)c1 [compound 15] was tested, and the “isoTOP-ABPP ratio (reactivity profile), P50851_C2675” value (LRBA C2675 (P50851)) was 1.6.
With COc1cc(NC(=O)CCl)cc(OC)c1 [compound 43] the “isoTOP-ABPP reactivity profile ratio, Q9NYL2_C22” value (MLTK C22 (Q9NYL2)) was 2.9.
In the case of CC(C)CCOCCNC(=O)CCl [compound 27], the “isoTOP-ABPP ratio (reactivity profile), Q9HB90_C377” value (RRAGC C377 (Q9HB90)) is reported as 1.0, the “isoTOP-ABPP ratio (reactivity profile), Q9NYL2_C22” value (MLTK C22 (Q9NYL2)) is reported as 1.1 and the “isoTOP-ABPP ratio Q9BVC5_C10” value ([1]; 200 μM, insitu, 231) is reported as 1.1. The “isoTOP-ABPP ratio P49588_C773” value ([2]; 200 μM, insitu, 231) was 0.6.
COc1cc2c(cc1OC)CN(C(=O)CCl)CC2 [compound 8] was tested, and the “isoTOP-ABPP reactivity Q9BVC5_C10 C2orf49” value ([1]; 200 μM, insitu, 231) was 4.5 and the “isoTOP-ABPP reactivity P49588_C773 AARS” value ([2]; 200 μM, insitu, 231) was 1.5.
C=CC(=O)N1CCC(c2noc3ccc(F)cc23)CC1 [compound 37] was tested, and the “isoTOP-ABPP reactivity ratio, P50851_C2675” value (LRBA C2675 (P50851); 500 μm, in-vitro_ramos) was 1.0.
COc1ccc(C2CC(c3cccs3)=NN2C(=O)CCl)cc1 (stereo not drawn) [compound 4] was tested, and the “R value (DMSO/fragment)” value (RRAGC C377 (Q9HB90); 250 μM) was 3.5, the “R value (DMSO/fragment)” value (LRBA C2675 (P50851); 250 μM, in vitro, MDA-MB-231) was 1.1 and the “R value (DMSO/fragment)” value (MLTK C22 (Q9NYL2); 250 μM) was 20.0. The “isoTOP-ABPP reactivity Q9BVC5_C10 C2orf49” value ([1]; 100 μM in situ 231) was 3.3 and the “isoTOP-ABPP reactivity P49588_C773 AARS” value ([2]; 100 μM in situ 231) was 1.3.
For O=C(/C=C/c1ccccc1)Nc1cc(C(F)(F)F)cc(C(F)(F)F)c1 [compound 26], the “isoTOP-ABPP ratio (reactivity profile), P50851_C2675” value (LRBA C2675 (P50851)) was 0.9.
In the case of O=C(CCl)Nc1cccc2ncccc12 [compound 51], the “isoTOP-ABPP reactivity profile ratio, Q9HB90_C377” value (RRAGC C377 (Q9HB90); 500 μm, in-vitro_ramos_231) is reported as 0.6, the “isoTOP-ABPP reactivity profile ratio, P50851_C2675” value (LRBA C2675 (P50851); 500 μm, in-vitro_ramos) is reported as 0.9 and the “isoTOP-ABPP ratio Q9BVC5_C10” value ([1]; 200 μM, insitu, 231) is reported as 1.0.
In the case of COc1ccccc1OCCNC(=O)CCl [compound 28], the “isoTOP-ABPP ratio (reactivity profile), Q9HB90_C377” value (RRAGC C377 (Q9HB90)) is reported as 1.3, the “isoTOP-ABPP ratio (reactivity profile), Q9NYL2_C22” value (MLTK C22 (Q9NYL2)) is reported as 1.4 and the “isoTOP-ABPP ratio Q9BVC5_C10” value ([1]; 200 μM, insitu, 231) is reported as 0.9.
In the case of O=C(CCl)N1CCN(S(=O)(=O)c2ccccc2F)CC1 [compound 10], the “isoTOP-ABPP ratio, P50851_C2675” value (LRBA C2675 (P50851); 500 μM, invitro, ramos) is reported as 1.3, the “isoTOP-ABPP ratio Q9BVC5_C10” value ([1]; 200 μM, insitu, 231) is reported as 3.1 and the “isoTOP-ABPP ratio P49588_C773” value ([2]; 200 μM, insitu, 231) is reported as 2.1. The “isoTOP-ABPP ratio P49588_C773” value ([2]; 200 μM, insitu, ramos) was 1.7.
CC1CCc2ccccc2N1C(=O)CCl (stereo not drawn) [compound 45] was tested, and the “isoTOP-ABPP reactivity profile ratio, Q9NYL2_C22” value (MLTK C22 (Q9NYL2)) was 20.0, the “isoTOP-ABPP ratio Q9BVC5_C10” value ([1]; 200 μM, insitu, 231) was 3.4 and the “isoTOP-ABPP ratio P49588_C773” value ([2]; 200 μM, insitu, 231) was 10.1.
For O=C(CCl)Nc1ccccc1C1CCCCCC1 [compound 35], the “isoTOP-ABPP reactivity ratio, P50851_C2675” value (LRBA C2675 (P50851); 500 μm, in-vitro_ramos) was 1.0.
With Cc1ccc(C=C(C#N)C(=O)NCCN2CCOCC2)cc1 [compound 41] the “isoTOP-ABPP reactivity ratio, Q9HB90_C377” value (RRAGC C377 (Q9HB90); 500 μm, in-vitro_ramos_231) was 1.1, the “isoTOP-ABPP reactivity ratio, P50851_C2675” value (LRBA C2675 (P50851); 500 μm, in-vitro_ramos_231) was 1.9 and the “isoTOP-ABPP reactivity ratio, Q9NYL2_C22” value (MLTK C22 (Q9NYL2)) was 1.5. The “isoTOP-ABPP ratio Q9BVC5_C10” value ([1]; 200 μM, insitu, 231) was 1.0 and the “isoTOP-ABPP ratio P49588_C773” value ([2]; 200 μM, insitu, 231) was 0.7.
O=C(CCl)N(Cc1ccc(F)cc1)C12CC3CC(CC(C3)C1)C2 [compound 34] was tested, and the “isoTOP-ABPP reactivity ratio, P50851_C2675” value (LRBA C2675 (P50851); 500 μm, in-vitro_ramos) was 1.1 and the “isoTOP-ABPP reactivity ratio, Q9NYL2_C22” value (MLTK C22 (Q9NYL2)) was 0.8.
For CC(C)(C)c1cc(NC(=O)CCl)on1 [compound 32], the “isoTOP-ABPP reactivity ratio, Q9HB90_C377” value (RRAGC C377 (Q9HB90); 500 μm, in-vitro_ramos) was 1.5, the “isoTOP-ABPP reactivity ratio, P50851_C2675” value (LRBA C2675 (P50851); 500 μm, in-vitro_ramos) was 1.1 and the “isoTOP-ABPP reactivity ratio, P50851_C2675” value (LRBA C2675 (P50851); 500 μm, in-vitro_ramos_231) was 1.8. For the same compound, the “isoTOP-ABPP reactivity ratio, Q9NYL2_C22” value (MLTK C22 (Q9NYL2)) was 2.1.
With C=CC(=O)N(c1ccccc1)c1ccc(Br)cc1 [compound 5] the “isoTOP-ABPP ratio, P50851_C2675” value (LRBA C2675 (P50851); 500 μM, invitro, ramos) was 20.0 and the “isoTOP-ABPP ratio Q9NYL2_C22” value (MLTK C22 (Q9NYL2); 500 μM, invitro, 231) was 20.0.
In the case of O=C(CCl)Nc1cc(C(F)(F)F)cc(C(F)(F)F)c1 [compound 3], the “R value (DMSO/fragment)” value (RRAGC C377 (Q9HB90); 500 μM) is reported as 3.7, the “R value (DMSO/fragment)” value (LRBA C2675 (P50851); 500 μM, invitro, ramos) is reported as 5.1 and the “R value (DMSO/fragment)” value (MLTK C22 (Q9NYL2); 500 μM) is reported as 1.8.
